Columns and labels:
Experiment in all cases: Kinase panel profiling
Format in all cases: biochemical
Settings in all cases: 10 μM ATP
CK1d = target: T1, CK1d (Homo sapiens, UniProt P48730)
T1 construct: purchased Reaction Biology Corp
Protocol: (§1) Kinase panel profiling was conducted by Reaction Biology Corp. (San Diego, CA, USA). A single dose (1.0 μM) of 6r was tested against 371 recombinant human kinases in the presence of 10 μM ATP.

FAK/PTK2 = target: T2, FAK/PTK2 (Homo sapiens, UniProt Q05397)
T2 construct: purchased Reaction Biology Corp
Protocol: as §1

CK1a1L = target: T3, CK1a1L (Homo sapiens, UniProt Q8N752)
T3 construct: purchased Reaction Biology Corp
Protocol: as §1

FYN = target: T4, FYN (Homo sapiens, UniProt P06241)
T4 construct: purchased Reaction Biology Corp
Protocol: as §1

SNRK = target: T5, SNRK (Homo sapiens, UniProt Q9NRH2)
T5 construct: purchased Reaction Biology Corp
Protocol: as §1

ERBB4/HER4 = target: T6, ERBB4/HER4 (Homo sapiens, UniProt Q15303)
T6 construct: purchased Reaction Biology Corp
Protocol: as §1

EGFR = target: T7, EGFR (Homo sapiens, UniProt P00533)
T7 construct: purchased Reaction Biology Corp
Protocol: as §1

p70S6Kb/RPS6KB2 = target: T8, p70S6Kb/RPS6KB2 (Homo sapiens, UniProt Q9UBS0)
T8 construct: purchased Reaction Biology Corp
Protocol: as §1

ERN1/IRE1 = target: T9, ERN1/IRE1 (Homo sapiens, UniProt O75460)
T9 construct: purchased Reaction Biology Corp
Protocol: as §1

NEK9 = target: T10, NEK9 (Homo sapiens, UniProt Q8TD19)
T10 construct: purchased Reaction Biology Corp
Protocol: as §1

RSK1 = target: T11, RSK1 (Homo sapiens, UniProt Q15418)
T11 construct: purchased Reaction Biology Corp
Protocol: as §1

RAF1 = target: T12, RAF1 (Homo sapiens, UniProt P04049)
T12 construct: purchased Reaction Biology Corp
Protocol: as §1

MST1/STK4 = target: T13, MST1/STK4 (Homo sapiens, UniProt Q13043)
T13 construct: purchased Reaction Biology Corp
Protocol: as §1

MEK5 = target: T14, MEK5 (Homo sapiens, UniProt Q13163)
T14 construct: purchased Reaction Biology Corp
Protocol: as §1

CHK1 = target: T15, CHK1 (Homo sapiens, UniProt O14757)
T15 construct: purchased Reaction Biology Corp
Protocol: as §1

c-MET = target: T16, c-MET (Homo sapiens, UniProt P08581)
T16 construct: purchased Reaction Biology Corp
Protocol: as §1

JNK1 = target: T17, JNK1 (Homo sapiens, UniProt P45983)
T17 construct: purchased Reaction Biology Corp
Protocol: as §1

AXL = target: T18, AXL (Homo sapiens, UniProt P30530)
T18 construct: purchased Reaction Biology Corp
Protocol: as §1

NEK2 = target: T19, NEK2 (Homo sapiens, UniProt P51955)
T19 construct: purchased Reaction Biology Corp
Protocol: as §1

CAMK2d = target: T20, CAMK2d (Homo sapiens, UniProt Q13557)
T20 construct: purchased Reaction Biology Corp
Protocol: as §1

PKN1/PRK1 = target: T21, PKN1/PRK1 (Homo sapiens, UniProt Q16512)
T21 construct: purchased Reaction Biology Corp
Protocol: as §1

TRKB = target: T22, TRKB (Homo sapiens, UniProt Q16620)
T22 construct: purchased Reaction Biology Corp
Protocol: as §1

PKN3/PRK3 = target: T23, PKN3/PRK3 (Homo sapiens, UniProt Q6P5Z2)
T23 construct: purchased Reaction Biology Corp
Protocol: as §1

MEK1 = target: T24, MEK1 (Homo sapiens, UniProt Q02750)
T24 construct: purchased Reaction Biology Corp
Protocol: as §1

MKK7 = target: T25, MKK7 (Homo sapiens, UniProt O14733)
T25 construct: purchased Reaction Biology Corp
Protocol: as §1

MINK/MINK1 = target: T26, MINK/MINK1 (Homo sapiens, UniProt Q8N4C8)
T26 construct: purchased Reaction Biology Corp
Protocol: as §1

CDK18/cyclin Y (PCTK3) = target: T27, CDK18/cyclin Y (PCTK3) (Homo sapiens, UniProt Q07002)
T27 construct: purchased Reaction Biology Corp
Protocol: as §1

MASTL = target: T28, MASTL (Homo sapiens, UniProt Q96GX5)
T28 construct: purchased Reaction Biology Corp
Protocol: as §1

CDK2/cyclin E2 = target: T29, CDK2/cyclin E2 (Homo sapiens, UniProt P24941)
T29 construct: purchased Reaction Biology Corp
Protocol: as §1

TAOK2/TAO1 = target: T30, TAOK2/TAO1 (Homo sapiens, UniProt Q9UL54)
T30 construct: purchased Reaction Biology Corp
Protocol: as §1

PAK6 = target: T31, PAK6 (Homo sapiens, UniProt Q9NQU5)
T31 construct: purchased Reaction Biology Corp
Protocol: as §1

PKCg = target: T32, PKCg (Homo sapiens, UniProt P05129)
T32 construct: purchased Reaction Biology Corp
Protocol: as §1

ABL1 = target: T33, ABL1 (Homo sapiens, UniProt P00519)
T33 construct: purchased Reaction Biology Corp
Protocol: as §1

LKB1 = target: T34, LKB1 (Homo sapiens, UniProt Q15831)
T34 construct: purchased Reaction Biology Corp
Protocol: as §1

IKKa/CHUK = target: T35, IKKa/CHUK (Homo sapiens, UniProt O15111)
T35 construct: purchased Reaction Biology Corp
Protocol: as §1

PAK1 = target: T36, PAK1 (Homo sapiens, UniProt Q13153)
T36 construct: purchased Reaction Biology Corp
Protocol: as §1

CDK5/p35 = target: T37, CDK5/p35 (Homo sapiens, UniProt Q00535)
T37 construct: purchased Reaction Biology Corp
Protocol: as §1

MRCKa/CDC42BPA = target: T38, MRCKa/CDC42BPA (Homo sapiens, UniProt Q5VT25)
T38 construct: purchased Reaction Biology Corp
Protocol: as §1

IR = target: T39, IR (Homo sapiens, UniProt P06213)
T39 construct: purchased Reaction Biology Corp
Protocol: as §1

PDGFRb = target: T40, PDGFRb (Homo sapiens, UniProt P09619)
T40 construct: purchased Reaction Biology Corp
Protocol: as §1

MAPKAPK5/PRAK = target: T41, MAPKAPK5/PRAK (Homo sapiens, UniProt Q8IW41)
T41 construct: purchased Reaction Biology Corp
Protocol: as §1

PKCnu/PRKD3 = target: T42, PKCnu/PRKD3 (Homo sapiens, UniProt O94806)
T42 construct: purchased Reaction Biology Corp
Protocol: as §1

T37 sequence (Q00535 whole entry): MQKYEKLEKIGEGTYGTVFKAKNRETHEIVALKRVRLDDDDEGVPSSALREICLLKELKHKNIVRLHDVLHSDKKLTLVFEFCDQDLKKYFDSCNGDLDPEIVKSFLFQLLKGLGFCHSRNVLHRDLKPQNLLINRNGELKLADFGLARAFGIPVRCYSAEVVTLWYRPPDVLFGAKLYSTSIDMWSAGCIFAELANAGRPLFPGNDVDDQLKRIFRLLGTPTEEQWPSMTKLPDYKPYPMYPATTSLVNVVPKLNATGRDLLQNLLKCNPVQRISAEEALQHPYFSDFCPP
T37 sequence (Q15078 whole entry partner): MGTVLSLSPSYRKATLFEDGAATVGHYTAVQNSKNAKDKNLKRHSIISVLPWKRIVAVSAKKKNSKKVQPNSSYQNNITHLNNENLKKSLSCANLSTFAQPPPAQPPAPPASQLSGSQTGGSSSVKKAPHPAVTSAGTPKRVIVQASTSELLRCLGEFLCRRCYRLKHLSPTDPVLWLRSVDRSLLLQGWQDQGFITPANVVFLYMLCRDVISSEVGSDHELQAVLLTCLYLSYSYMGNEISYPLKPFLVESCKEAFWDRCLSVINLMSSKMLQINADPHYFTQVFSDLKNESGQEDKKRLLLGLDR
T40 sequence (P09619 33-1106): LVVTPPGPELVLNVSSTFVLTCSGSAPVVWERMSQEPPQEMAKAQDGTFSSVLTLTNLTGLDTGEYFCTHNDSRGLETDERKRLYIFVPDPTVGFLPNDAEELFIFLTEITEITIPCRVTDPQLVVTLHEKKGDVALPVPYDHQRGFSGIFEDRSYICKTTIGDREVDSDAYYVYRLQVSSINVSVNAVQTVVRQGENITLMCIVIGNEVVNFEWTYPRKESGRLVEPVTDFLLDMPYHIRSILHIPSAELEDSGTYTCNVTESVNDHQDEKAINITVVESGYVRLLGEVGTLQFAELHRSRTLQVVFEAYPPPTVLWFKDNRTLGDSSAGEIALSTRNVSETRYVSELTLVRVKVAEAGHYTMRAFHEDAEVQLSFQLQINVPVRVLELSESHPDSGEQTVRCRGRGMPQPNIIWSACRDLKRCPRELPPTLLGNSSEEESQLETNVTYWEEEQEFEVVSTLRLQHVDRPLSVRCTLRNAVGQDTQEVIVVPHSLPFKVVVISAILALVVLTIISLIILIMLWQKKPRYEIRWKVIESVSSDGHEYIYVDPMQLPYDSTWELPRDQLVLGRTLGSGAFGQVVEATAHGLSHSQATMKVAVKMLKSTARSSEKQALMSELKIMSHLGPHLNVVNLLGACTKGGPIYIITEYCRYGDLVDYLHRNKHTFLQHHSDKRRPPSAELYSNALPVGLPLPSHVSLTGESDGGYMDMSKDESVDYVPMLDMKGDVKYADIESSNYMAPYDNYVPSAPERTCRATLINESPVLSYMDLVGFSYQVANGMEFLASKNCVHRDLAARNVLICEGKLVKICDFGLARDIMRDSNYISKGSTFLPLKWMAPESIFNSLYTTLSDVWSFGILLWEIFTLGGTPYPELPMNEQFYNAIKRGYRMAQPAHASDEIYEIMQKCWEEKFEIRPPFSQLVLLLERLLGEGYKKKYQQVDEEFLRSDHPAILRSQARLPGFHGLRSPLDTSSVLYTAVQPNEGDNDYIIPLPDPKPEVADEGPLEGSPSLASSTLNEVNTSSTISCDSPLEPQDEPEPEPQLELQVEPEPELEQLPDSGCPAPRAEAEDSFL
T15 sequence (O14757 whole entry): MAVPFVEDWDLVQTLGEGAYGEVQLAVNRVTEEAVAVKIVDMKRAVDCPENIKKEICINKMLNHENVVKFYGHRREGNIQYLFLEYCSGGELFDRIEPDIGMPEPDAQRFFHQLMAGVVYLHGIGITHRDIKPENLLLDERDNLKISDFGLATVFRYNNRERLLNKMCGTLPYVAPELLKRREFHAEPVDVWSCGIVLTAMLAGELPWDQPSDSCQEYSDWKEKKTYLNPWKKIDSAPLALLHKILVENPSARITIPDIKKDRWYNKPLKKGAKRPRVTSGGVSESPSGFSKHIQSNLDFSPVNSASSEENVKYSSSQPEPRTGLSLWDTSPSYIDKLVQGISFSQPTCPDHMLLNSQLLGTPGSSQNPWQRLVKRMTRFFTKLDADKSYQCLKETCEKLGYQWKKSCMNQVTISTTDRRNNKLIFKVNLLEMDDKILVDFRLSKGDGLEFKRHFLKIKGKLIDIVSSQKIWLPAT
T25 sequence (O14733 whole entry): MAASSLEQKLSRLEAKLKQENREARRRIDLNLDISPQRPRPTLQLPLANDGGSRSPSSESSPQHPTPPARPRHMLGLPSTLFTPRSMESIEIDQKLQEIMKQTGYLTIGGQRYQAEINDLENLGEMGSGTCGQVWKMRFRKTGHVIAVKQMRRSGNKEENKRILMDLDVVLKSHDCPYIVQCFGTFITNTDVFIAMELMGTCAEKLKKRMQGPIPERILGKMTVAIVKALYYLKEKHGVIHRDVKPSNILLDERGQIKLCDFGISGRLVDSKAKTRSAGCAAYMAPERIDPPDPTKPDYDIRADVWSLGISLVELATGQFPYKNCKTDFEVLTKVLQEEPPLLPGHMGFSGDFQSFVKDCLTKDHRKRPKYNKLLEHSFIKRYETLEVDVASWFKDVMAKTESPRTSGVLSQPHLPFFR
T17 sequence (P45983 whole entry): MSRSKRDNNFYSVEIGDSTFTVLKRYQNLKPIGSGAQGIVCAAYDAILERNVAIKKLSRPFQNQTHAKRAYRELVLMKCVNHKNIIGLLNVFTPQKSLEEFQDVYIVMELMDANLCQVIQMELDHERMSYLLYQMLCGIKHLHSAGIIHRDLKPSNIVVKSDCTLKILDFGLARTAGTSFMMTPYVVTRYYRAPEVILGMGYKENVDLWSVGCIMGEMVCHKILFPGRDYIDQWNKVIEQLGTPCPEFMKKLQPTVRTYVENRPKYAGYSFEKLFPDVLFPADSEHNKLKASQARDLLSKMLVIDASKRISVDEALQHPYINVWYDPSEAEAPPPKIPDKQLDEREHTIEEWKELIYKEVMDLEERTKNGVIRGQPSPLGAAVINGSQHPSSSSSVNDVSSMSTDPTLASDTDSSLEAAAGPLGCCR
T13 sequence (Q13043 whole entry): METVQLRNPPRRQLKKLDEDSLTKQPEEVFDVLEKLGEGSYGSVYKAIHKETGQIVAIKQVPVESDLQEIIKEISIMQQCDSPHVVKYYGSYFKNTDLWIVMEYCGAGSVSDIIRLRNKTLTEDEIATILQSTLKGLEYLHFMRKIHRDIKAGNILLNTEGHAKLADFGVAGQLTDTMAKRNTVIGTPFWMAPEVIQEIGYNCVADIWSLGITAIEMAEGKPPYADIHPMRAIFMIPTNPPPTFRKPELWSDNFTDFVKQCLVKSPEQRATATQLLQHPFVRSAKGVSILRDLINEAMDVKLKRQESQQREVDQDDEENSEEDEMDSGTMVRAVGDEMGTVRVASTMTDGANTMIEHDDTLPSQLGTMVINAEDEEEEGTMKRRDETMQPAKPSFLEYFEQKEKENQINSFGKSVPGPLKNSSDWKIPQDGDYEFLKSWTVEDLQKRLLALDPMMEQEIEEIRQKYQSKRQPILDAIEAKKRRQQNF
T28 sequence (Q96GX5 whole entry): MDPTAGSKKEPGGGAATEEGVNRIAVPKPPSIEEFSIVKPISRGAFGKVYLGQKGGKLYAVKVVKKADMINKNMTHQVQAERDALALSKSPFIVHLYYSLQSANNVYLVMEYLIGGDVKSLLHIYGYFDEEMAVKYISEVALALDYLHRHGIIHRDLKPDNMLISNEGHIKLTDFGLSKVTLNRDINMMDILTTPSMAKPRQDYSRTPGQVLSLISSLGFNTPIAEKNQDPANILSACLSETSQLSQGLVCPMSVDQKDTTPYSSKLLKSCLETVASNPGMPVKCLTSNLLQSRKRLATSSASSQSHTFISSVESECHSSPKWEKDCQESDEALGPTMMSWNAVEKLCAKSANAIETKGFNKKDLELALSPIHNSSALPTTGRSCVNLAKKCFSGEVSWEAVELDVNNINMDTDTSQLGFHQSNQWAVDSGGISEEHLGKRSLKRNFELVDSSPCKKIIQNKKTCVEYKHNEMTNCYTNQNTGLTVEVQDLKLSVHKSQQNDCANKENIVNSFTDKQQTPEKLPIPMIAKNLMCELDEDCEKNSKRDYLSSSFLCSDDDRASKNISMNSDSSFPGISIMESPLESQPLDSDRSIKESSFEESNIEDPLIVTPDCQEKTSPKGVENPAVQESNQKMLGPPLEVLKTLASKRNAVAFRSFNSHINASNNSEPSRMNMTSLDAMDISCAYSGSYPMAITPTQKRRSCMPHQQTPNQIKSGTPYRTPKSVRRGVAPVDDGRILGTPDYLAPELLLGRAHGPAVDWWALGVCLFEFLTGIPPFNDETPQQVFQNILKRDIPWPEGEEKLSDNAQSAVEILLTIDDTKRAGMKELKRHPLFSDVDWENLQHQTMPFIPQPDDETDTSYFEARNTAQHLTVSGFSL
T14 sequence (Q13163 whole entry): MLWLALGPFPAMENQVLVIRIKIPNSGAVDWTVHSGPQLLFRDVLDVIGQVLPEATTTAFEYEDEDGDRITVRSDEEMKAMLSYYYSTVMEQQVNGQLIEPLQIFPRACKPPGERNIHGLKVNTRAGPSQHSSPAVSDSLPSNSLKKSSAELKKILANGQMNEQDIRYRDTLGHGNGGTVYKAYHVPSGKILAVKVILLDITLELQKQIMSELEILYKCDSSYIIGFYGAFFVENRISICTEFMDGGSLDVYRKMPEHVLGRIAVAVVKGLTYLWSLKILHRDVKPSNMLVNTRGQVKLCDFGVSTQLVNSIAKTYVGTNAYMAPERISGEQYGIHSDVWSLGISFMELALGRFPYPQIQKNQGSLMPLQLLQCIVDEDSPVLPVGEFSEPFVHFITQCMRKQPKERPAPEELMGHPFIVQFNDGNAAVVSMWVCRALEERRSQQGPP

Cc1ccc(NC(=O)c2ccc(CN3CCN(C)CC3)c(C(F)(F)F)c2)cc1-c1cnc2sc(N)nc2c1 [6r]
inhibition at 1 µM (CK1d): 27.3%
inhibition at 1 µM (FAK/PTK2): 7.8%
inhibition at 1 µM (CK1a1L): 8.5%
inhibition at 1 µM (FYN): 89%
inhibition at 1 µM (SNRK): 0%
inhibition at 1 µM (ERBB4/HER4): 73.9%
inhibition at 1 µM (EGFR): 21.4%
inhibition at 1 µM (p70S6Kb/RPS6KB2): 34%
inhibition at 1 µM (ERN1/IRE1): 8%
inhibition at 1 µM (NEK9): 0%
inhibition at 1 µM (RSK1): 23.4%
inhibition at 1 µM (RAF1): 99.9%
inhibition at 1 µM (MST1/STK4): 4.3%
inhibition at 1 µM (MEK5): 6.5%
inhibition at 1 µM (CHK1): 9.3%
inhibition at 1 µM (c-MET): 2.7%
inhibition at 1 µM (JNK1): 14%
inhibition at 1 µM (AXL): 15.8%
inhibition at 1 µM (NEK2): 0%
inhibition at 1 µM (CAMK2d): 0%
inhibition at 1 µM (PKN1/PRK1): 15.1%
inhibition at 1 µM (TRKB): 10.6%
inhibition at 1 µM (PKN3/PRK3): 8.6%
inhibition at 1 µM (MEK1): 14.4%
inhibition at 1 µM (MKK7): 7.3%
inhibition at 1 µM (MINK/MINK1): 0%
inhibition at 1 µM (CDK18/cyclin Y (PCTK3)): 5.1%
inhibition at 1 µM (MASTL): 1.3%
inhibition at 1 µM (CDK2/cyclin E2): 8.3%
inhibition at 1 µM (TAOK2/TAO1): 61.9%
inhibition at 1 µM (PAK6): 7.6%
inhibition at 1 µM (PKCg): 0.7%
inhibition at 1 µM (ABL1): 60.8%
inhibition at 1 µM (LKB1): 0%
inhibition at 1 µM (IKKa/CHUK): 4.8%
inhibition at 1 µM (PAK1): 6.9%
inhibition at 1 µM (CDK5/p35): 0.7%
inhibition at 1 µM (MRCKa/CDC42BPA): 0%
inhibition at 1 µM (IR): 1.9%
inhibition at 1 µM (PDGFRb): 94.2%
inhibition at 1 µM (MAPKAPK5/PRAK): 0%
inhibition at 1 µM (PKCnu/PRKD3): 23.8%
